How the values were obtained:
[1] = Release of FITC-BSA protein from nanostructured PCL devices; format: physicochemical; settings: nanostructured PCL devices (n=3), pore size 20-40 nm
Excerpt: Multilayer thin film devices having pore sizes in the range of […]-40 nm were fabricated as described herein.

[2] = Payload calculations and safety consideration; settings: device designed for delivery over 6 months, failure
Description: The loading requirements for a device are analyzed based upon a zero-order release profile that maintains concentration in the posterior of the eye for at least a 4 month period. For example, based on a 5 mm×5 mm thin-film with 20 nm pores, with a void space of 50% a maximal drug load in this device is 1.3 mg of lyophilized drug, with release rates as high 2 μg/day/mm^2 based on membrane experiments. Desired release rates depend on drug affinity, vitreous half-life, and target vitreous concentration. […] Complete dose dumping for a device designed for delivery over 6 months would produce systemic drug concentration of less than 3.4 ng/ml upon failure, which falls well below the 11-27 ng/ml threshold thought to inhibit VEGF by 50%. In addition, a multi-chambered reservoir (FIG. 10) minimizes the risk that the entire drug payload could be inadvertently dumped. Based upon conservative estimates of Lucentis© half-life in the vitreous humor, a device loaded with approximately 800 μg of drug is estimated to maintain therapeutic levels for a 6 month or longer period.

| Substance | release rate [1] [µg/day] | time period of release [1] [days] | systemic drug concentration upon complete dose dumping [2] |
| --- | --- | --- | --- |
| FITC-BSA: FITC-BSA protein released from nanostructured PCL devices | 1 | 210 |  |
| ranibizumab: anti-VEGF formulation (Lucentis, Genentech, Inc.) |  |  | less than 3.4 ng/ml |

Reference: patent US11185499B2, “Multilayer thin film drug delivery device and methods of making and using the same” (The Regents of the University of California, priority 2011, dated 2021)
